For 35 compounds, logP results are on record in the SangsterLogP compilation.

The term logP denotes a log measure of how a compound divides between an organic and an aqueous phase.

Compound `c1ccc2cc3c(cc2c1)sc1ccccc13` displayed a logP of 5.07. The compound `c1ccc2c(c1)Sc1ccccc1S2` yielded a logP of 4.47. Still for that read-out and setting: the same measure for `c1ccc2c(c1)Cc1ccccc1O2`: 4.23; for `c1ccc2c(c1)COC2`: 1.63.

In turn, `c1csc(-c2cccs2)c1` yielded a logP of 3.75. As to `c1ccc2c(c1)Oc1ccccc1O2`, the logP stood at 4.19. `c1ccc2sccc2c1` came in with a logP of 3.26. Still for that read-out and setting: the result for `c1ccc(-c2ccccn2)nc1` reads 1.67.

The source holds these as a separate data set.
With `c1ccc2c(c1)c1cccc3ccc4cccc2c4c31`, the logP was 6.44. On the same count and under the same terms, the same measure for `c1ccc(-c2cccc(-c3ccccn3)n2)nc1`: 1.96; for `c1ccc2occc2c1`: 2.53. `c1ccc(-c2cccc(-c3ccccc3)n2)cc1` yielded a logP of 4.6. As for `c1ccc2cc3c4ccccc4c4ccccc4c3cc2c1`, the logP is 7.11. As to `c1cnccn1`, the logP is -0.05. Consider `c1ccc2c(c1)ccc1cccnc12`, for which the logP turned out to be 3.25. In turn, `C1=Cc2ccc3c4c(ccc1c24)C=C3` came in with a logP of 5.07. On the same count and under the same terms, the result for `c1cc2ccc3ccc4ccc5cccc6c(c1)c2c3c4c56` reads 7.04; that for `c1ccc2c(c1)cc1ccc3cccc4c5ccccc5c2c1c34`, 7.71.

Compound `c1ccc2c(c1)c1ccccc1c1ccccc21` returned a logP of 5.84. Regarding `c1ccc2cc3c(ccc4c5ccccc5ccc34)cc2c1`, the log partition coefficient (logP) is 7.11. The same measure, in the same setting: the result for `c1ccc(-c2c3ccccc3c(-c3ccccc3)c3ccccc23)cc1` reads 8.46; that for `c1ccc2cc3c(cc2c1)oc1ccccc13`, 5.08. Still for that read-out and setting: the same measure for `c1ccc2cc3cc4cc5ccccc5cc4cc3cc2c1`: 7.11. On to `c1cc(-c2ccncc2)ccn1`, for which the logP was found to be 1.33. Same read-out and setting: the result for `c1ccc2c(c1)ccc1c3ccc4ccccc4c3[nH]c21` reads 5.89; that for `c1cc2c3c(c1)ccc1ccc4cccc-2c4c13`, 6.63. `c1ccc2c(c1)ccc1c2ccc2ccc3ccccc3c21`: the logP came to 7.11. For the compound `c1ccc2c(c1)CCO2`, the logP is 2.26.

`c1cnc2c(c1)ccc1ncccc12` yielded a logP of 1.93.

The compound `c1ccc2c(c1)ccc1c2ccc2c3ccccc3ccc21` gave a logP of 7.11. Compound `c1ccc2c(c1)c1ccccc1c1c3ccccc3c3ccccc3c21` displayed a logP of 8.39. For the compound `c1cnc2c(c1)ccc1cccnc12`, the logP was determined as 1.93.

Take `c1cc2ccc3cc4cccc5ccc6cc(c1)c2c3c6c54`: the logP was 7.04. Still for that read-out and setting: the result for `c1ccc2c(c1)ccc1ncccc12` reads 3.25. Still for that read-out and setting: the result for `c1ccc(-c2cc3cccnc3c3ncccc23)cc1` reads 3.
